Results as given in US5719154A, “Oxazolidinone antibacterial agents having a six-membrane heteroaromatic ring” (priority 1996, dated 1998).

Tests used:
S. aureus UC ® No. 9213 = assay: Murine Assay, in vivo antimicrobial activity (ED50 from mortality ratios) against S. aureus UC No. 9213; design: species or system Staphylococcus aureus (infected female mice); conditions: oral or subcutaneous, survival six days; for ED50: Staphylococcus aureus, UC9213, 144 h, female mice infected intraperitoneally with S. aureus UC No. 9213, drug one hour and five hours after infection, probit analysis
Protocol: Antimicrobial activity is tested in vivo using the Murine Assay procedure. Groups of female mice (six mice weighing 18-20 grams each) are injected intraperiteneally with bacteria which are thawed just prior to use and suspended in brain heart infusion with 4% brewers yeast (Staphylococcus aureus) or brain heart infusion (Streptecoccus species). Antibiotic treatment at six dose levels per drug is administered one hour and five hours after infection by either oral intubation or subcutaneous routes. Survival is observed daily for six days. ED50 values based on mortality ratios are calculated using probit analysis. The subject compounds are compared against drug U-100592 as controls. […] The detailed information with respect to the structure and in vivo efficacy evaluations of U-100592 is summarized in Upjohn Oxazolidinone Antibacterial Agents, Posters Presented at the 35th Interscience Conference on Antimicrobial Agents and Chemotherapy, San Francisco, 17-20 September 1995.

[1] = tested on: bacteria (Staphylococcus aureus or Streptecoccus species); conditions: extensively evaluated in this animal model versus vancomycin; cited from earlier work

`CC(=O)NC[C@H]1CN(c2ccc(N3CCN(c4ccc(C)nn4)CC3)c(F)c2)C(=O)O1` [Example 4] showed an ED50 (S. aureus UC ® No. 9213) of 6.3 mg/kg.
In the case of `CC(=O)NC[C@H]1CN(c2ccc(N3CCN(C(=O)CO)CC3)c(F)c2)C(=O)O1` [Example U-100592, reference compound], the “U-100592 ED50” value (S. aureus UC ® No. 9213; comparator control for the Example of the same line, female mice, S. aureus UC No. 9213, 8640 min) is given as 8.7 mg/kg and the potency versus vancomycin [1] is given as “equipotent to vancomycin”.
With `CC(=O)NC[C@H]1CN(c2ccc(N3CCN(c4ncccn4)CC3)c(F)c2)C(=O)O1` [Example 1] the ED50 (S. aureus UC ® No. 9213) was 6.2 mg/kg.
`CC(=O)NC[C@H]1CN(c2ccc(N3CCN(c4ccncn4)CC3)c(F)c2)C(=O)O1` [Example 2] gave an ED50 (S. aureus UC ® No. 9213) of 4.4 mg/kg.
`CC(=O)NC[C@H]1CN(c2ccc(N3CCN(c4cccnn4)CC3)c(F)c2)C(=O)O1` [Example 3] gave an ED50 (S. aureus UC ® No. 9213) of 8.8 mg/kg.
